From patent US8357774B2, “Polypeptide and process for producing the same” (National University Corporation Nara Institute of Science …, priority 2007, dated 2013)

Tested on: NIH3T3 cell
Assay: NIH3T3 cell adhesion on film
Format: cell-based
Conditions: seeded 10^4 cells/cm^2 in D-MEM, 5% CO2, 37° C., 1 hour, washed three times with PBS, counted at five positions
Procedure: A NIH3T3 cell suspended in D-MEM was added onto the resulting Gly-Arg-Gly-Asp-Ser-conjugated poly(Pro-Hyp-Gly) film at a ratio of 10^4 cells/cm^2, followed by allowing to stand in 5% CO2 at 37° C. for 1 hour. The non-adhered cell was washed out three times with PBS and the number of adhered cells was counted at five positions on the film.

| Substance | number of adhered cells (average) |
| --- | --- |
| bovine collagen type I: Bovine collagen type I coated on a plastic dish, comparison surface | 6,000 cells/cm^2 |
| poly(Pro-Hyp-Gly) | 2,000 cells/cm^2 |
